Measured values from PMC11213822, “Copper resistance in the cold: Genome analysis and characterisation of a PIB‐1 ATPase in Bizionia argentinensis” (Environmental Microbiology Reports, 2024).

Tests used:
BaCopA1 = target: T1, BaCopA1 (Bizionia argentinensis, UniProt G2EDW3); experiment: time course of Pi release, malachite green; type: biochemical; details: 2.0 mM ATP, 2.0 mM MgCl2, 0.1 mM CuSO4, 20 mM cysteine, pH 8.0, 5 °C; 10 μM vanadate
T1 construct: gene BZARG_1779; C-terminal TEV site-GFP-His tag not removed (tag printed as His6 and his8); expressed in S. cerevisiae FGY217, detergent-solubilised, Ni-NTA purified in C12E10

purified protein = substrate: Nc1ncnc2c1ncn2[C@@H]1O[C@H](COP(=O)(O)OP(=O)(O)OP(=O)(O)O)[C@@H](O)[C@H]1O; experiment: purified protein; details: free Mg2+ 0.25 mM, 0.1 mM CuSO4, 20 mM cysteine, asolectin/C12E10, pH 8.0, 5 °C

| Molecule | inhibition at 10 μM (BaCopA1) | Km (purified protein) [µM] |
| --- | --- | --- |
| [O]=[V]([OH])([OH])[OH] [vanadate] | an inhibitory effect of ATPase activity occurs with the addition of vanadate |  |
| BaCopA1 (Bizionia argentinensis JUB59) (protein) MTCNGCRSHVEEILSKVKYVLKASVDLEKEEATIEMESHIPIEKFQNALKNDGGRYSIHKNPLPGSPKGRSNKTDKSKSEKSPLRGLGDTFYCPMHCEGDKIYDKPGDCPVCGMDLVEEQNLSTSNSEQWTCPMHPEVVKDEAGPCPICGMDLVPMQADSSAEEKTYKKLLKKFWIASIFTLPIFIMAMSEMLTNNPLYDIMDQKNWNWVQFALSIPVVFYATWMFFERAYKSIKTWNLNMFTLIGIGAGVAWLFSVFGMFFPDVFPSQFRSESGAVHVYFEAATVILTLVLLGQLLEARAHSKTNSAVKELLKLAPNKATKVVNGEDVEVSIDNIELNDILKVKPGDKIPVDGVITEGVTTIDESMITGEPVPVDKTEGDKVSSGTINGNQSFLMKAEKVGSHTLLSQIIHMVNTASRSRAPIQNLADKVSGYFVPVVVLISLITFAVWAIWGPEPAYVYALVNAIAVLIIACPCALGLATPMSVMVGVGKGAQNGVLIKNAEALEKLDKVDTLIVDKTGTITEGKPTVEKMGAFSDVFSESDVLQYIVSLNSNSEHPLAEATVKYGKEQKAEIIKSDAFSAVTGKGVEATINNKKVALGNPKMMEYAQAEITSQMQDEAKTYQKQGKTVSYLAIDKIVIGYVVIGDKIKATSAKAIKELQDKGIAVIMLTGDNHDTAQAVASELNLADFKASMLPEDKLKEVEKLQKEGKVVAMAGDGINDAPALAKSDVGIAMGTGTDVAIESAMITLVKGDLNGIVKAKHLSHAVMKNIKQNLFFALIYNTLGVPIAAGVLFPIFGILLSPMIAALAMSFSSVSVIANALRLRTIKI |  | 150 ± 30 |
